Here are results for 51 compounds from PubChem BioAssay AID1996.

The term kinetic solubility denotes the concentration staying in solution when a stock, usually in DMSO, is diluted into the medium.

≈ marks a conversion by molar mass, not a printed value. Where only a bound is given, the exact number is not on record here.

The conditions of this series: buffer; pH 7.4; 200.0 µM.
For `CSc1cccc(NC(=O)CCCNC(=O)c2ccc(Cl)cc2)c1`, the solubility (kinetic) turned out to be 4.5 µg/mL (≈ 12.4 µM).

As for `Cc1ccc(C(=O)N=c2sccn2C)o1`, the kinetic solubility worked out at 32.9 µg/mL (≈ 148 µM).

On to `COC(=O)Nc1ccc(S(=O)(=O)Nc2cnc3ccccc3n2)cc1`, for which the kinetic solubility is more than 53.8 µg/mL.

In the case of `NC(=O)NC(CC(=O)N1CCc2ccccc2C1)c1ccc(Cl)cc1` (stereo unspecified), the kinetic solubility is 49.9 µg/mL (≈ 139 µM).

`COc1cc(/C=C2\SC(N)=NC2=O)cc(Cl)c1O` yielded a kinetic solubility of 9.6 µg/mL (≈ 33.7 µM).

For `CCOc1cc(N2CCOCC2)c(OCC)cc1NC(=O)C(C)Oc1ccccc1` (stereo unspecified), the solubility (kinetic) was found to be 43.6 µg/mL (≈ 105 µM).

Take `CC(=O)c1ccc(NC(=O)CCOc2cc(C)ccc2C)cc1`: the kinetic solubility worked out at 5 µg/mL (≈ 16.1 µM).

In turn, `Cc1cc(C=C2C(=O)NC(=O)NC2=O)c(C)n1-c1ccncc1` came in with a kinetic solubility of more than 46.5 µg/mL.

The compound `Nc1c([N+](=O)[O-])c(=O)oc2ccccc12` displayed a solubility (kinetic) of more than 30.9 µg/mL.

On to `CC(Sc1nc2ccccc2[nH]1)C(=O)NC1CCCCC1C` (stereo unspecified), for which the solubility (kinetic) turned out to be 14.5 µg/mL (≈ 45.7 µM).

`N#CC1(NC(=O)Cn2cc(C(F)(F)F)cc(Cl)c2=O)CCCCC1` displayed a solubility (kinetic) of 13.8 µg/mL (≈ 38.1 µM). The solubility kinetic values of the last two compounds are within 1.5-fold of each other.

`CC(=O)Nc1cccc(C(=O)NC(C)c2ccc(-n3ccnc3)cc2)c1` (stereo unspecified) came in with a kinetic solubility of 45.5 µg/mL (≈ 131 µM).

The compound `C=CCOc1ccc(C2NC(=S)NC3=C2CCc2ccccc23)cc1` (stereo unspecified) returned a solubility (kinetic) of 11.2 µg/mL (≈ 32.1 µM).

Compound `CC1CCCC(NC(=O)C2CC(=O)N(Cc3ccccc3)C2)C1C` (stereo unspecified) had a solubility (kinetic) of 37.4 µg/mL (≈ 114 µM).

`O=C(COc1cccc(F)c1)Nc1nc(-c2cccnc2)cs1`: the kinetic solubility was determined as 7.3 µg/mL (≈ 22.2 µM). Against the preceding compound, the solubility kinetic is about 5.1-fold lower.

For `O=C(NCC(c1ccco1)N1CCN(c2ccccc2F)CC1)c1cccs1` (stereo unspecified), the solubility (kinetic) came to 54.3 µg/mL (≈ 136 µM).

The compound `NC1=NC(c2ccc(Cl)cc2)C(C(=O)c2ccccc2)N1` (stereo unspecified) registered a kinetic solubility of 4.9 µg/mL (≈ 16.3 µM).

`NC(=O)c1ccccc1NC(=O)CC12CC3CC(CC(C3)C1)C2` had a solubility (kinetic) of 4.1 µg/mL (≈ 13.1 µM).

`N#Cc1c(N2CCCC(O)C2)nc(N)c2c(N)nc3c(c12)CC(=O)N3C12CC3CC(CC(C3)C1)C2` (stereo unspecified) yielded a kinetic solubility of 2.4 µg/mL (≈ 5.07 µM).

In turn, `CN1CCCN(C(=O)c2c(F)cccc2Cl)CC1` showed a solubility (kinetic) of more than 40.6 µg/mL.

As to `COc1cccc(C(=O)C(C#N)=C(SC)SC)c1`, the kinetic solubility turned out to be 33.6 µg/mL (≈ 120 µM).

For the compound `O=C(c1ccccc1)N1CCN(S(=O)(=O)c2cccs2)CC1`, the kinetic solubility is more than 50.5 µg/mL.

Compound `Cc1[nH]c2ccccc2c1C(C[N+](=O)[O-])c1cccc(O)c1` (stereo unspecified) displayed a solubility (kinetic) of 40.1 µg/mL (≈ 135 µM).

As to `COC(=O)c1ccc(OC)c(Cn2c(=O)n(C)c(=O)c3ccccc32)c1`, the solubility (kinetic) stood at 2.2 µg/mL (≈ 6.21 µM). Compared with the last compound, the solubility kinetic is about 18-fold lower.

`CC1(C)CC(=O)C=C(Nc2ccc3c(c2)CCC3)C1` showed a solubility (kinetic) of 35.8 µg/mL (≈ 140 µM).

On to `O=C(Nc1cccc(C(=O)NC2CCCC2)c1)c1ccccc1`, for which the solubility (kinetic) is 21.1 µg/mL (≈ 68.4 µM).

Consider `Cc1cc(C(=O)NC2CCCCC2C)c2ccccc2n1` (stereo unspecified), for which the kinetic solubility is more than 42.4 µg/mL.

Take `CN1CCN(CC#Cc2ccccc2)CC1CCO` (stereo unspecified): the kinetic solubility is more than 38.8 µg/mL.

`COC(=O)c1ccc(Nc2ccc3nonc3c2[N+](=O)[O-])cc1` had a solubility (kinetic) of less than 0.2 µg/mL.

Compound `COc1ccc(C(=O)NCC(=O)OCCOc2ccc(Cl)cc2)cc1OC` came in with a kinetic solubility of 13.6 µg/mL (≈ 34.5 µM).

Consider `CCOC(=O)c1ccc(N2C(=O)c3cccc4c(C(=O)O)ccc(c34)C2=O)cc1`, for which the solubility (kinetic) stood at 25 µg/mL (≈ 64.2 µM). This solubility kinetic lies about 1.8-fold higher than the previous one.

Compound `CCN1CCN(C(=O)COc2ccc3oc4c(c3c2)CCCC4)CC1` returned a kinetic solubility of more than 51.4 µg/mL.

`Cc1cc(/C=C(\C#N)C(=O)NCc2ccco2)c(C)n1-c1cccnc1`: the solubility (kinetic) turned out to be 10.7 µg/mL (≈ 30.9 µM).

On to `CCOC(=O)N1CCN(C(=S)Nc2ccccc2C(C)C)CC1`, for which the solubility (kinetic) was more than 50.3 µg/mL.

In turn, `O=C(COC(=O)C1CCCC1)Nc1ncc(Cl)cc1Cl` returned a solubility (kinetic) of more than 47.6 µg/mL.

The compound `NC(=O)/C(=C\c1cccnc1)NC(=O)c1ccccc1` registered a solubility (kinetic) of more than 40.1 µg/mL.

On to `O=S(=O)(Nc1ccon1)c1ccc(F)c(F)c1`, for which the kinetic solubility was 25.9 µg/mL (≈ 99.5 µM).

`COc1ccc(-c2nc(=S)n3ccsc3n2)cc1OC` displayed a solubility (kinetic) of 4.4 µg/mL (≈ 14.4 µM). Compared with the last compound, the solubility kinetic is about 5.9-fold lower.

Regarding `COc1ccccc1NS(=O)(=O)c1cc(NC(=O)c2ccccc2[N+](=O)[O-])ccc1N1CCOCC1`, the kinetic solubility was 4.4 µg/mL (≈ 8.58 µM).

As to `NS(=O)(=O)c1ccc(NC(=O)CSc2nc3ccccc3c(=O)n2Cc2ccncc2)cc1`, the solubility (kinetic) was 8 µg/mL (≈ 16.6 µM).

Take `COc1ccccc1C1CCN(c2cc(O)ccc2[N+](=O)[O-])CC1`: the solubility (kinetic) came out at 38.9 µg/mL (≈ 118 µM).

As for `CSc1ccc(CN2CCN(CC=C(C)C)C(CCO)C2)cc1` (stereo unspecified), the kinetic solubility is more than 50.2 µg/mL.

In the case of `COc1ccc([N+](=O)[O-])cc1NC(=O)CCSCCc1ccccn1`, the kinetic solubility was more than 54.2 µg/mL.

Compound `CCCn1c(=O)c2c(nc3n2CCN3Cc2ccco2)n(C)c1=O` came in with a kinetic solubility of more than 49.4 µg/mL.

For the compound `CN(C)c1ccc(/C=N/NC(=O)CNC(=O)c2ccncc2)cc1`, the kinetic solubility is more than 48.8 µg/mL.

For the compound `CC(C)(C)C(=O)Nc1c(Cl)cccc1OC(F)(F)F`, the kinetic solubility was 34.2 µg/mL (≈ 116 µM).

For `Cc1nn(CC(=O)NC(C)c2ccccc2)c(C)c1[N+](=O)[O-]` (stereo unspecified), the kinetic solubility was more than 45.3 µg/mL.

For `CCOc1ccc(NC(=O)CCN2CCN(C)CC2)cc1`, the kinetic solubility is more than 43.7 µg/mL.

As to `CCc1ccc(NC(=O)CN2CC(c3ccccc3)CC2=O)cc1` (stereo unspecified), the kinetic solubility was more than 48.4 µg/mL.

`CCOc1cc(/C=C2\N=C(C)OC2=O)cc(Cl)c1OCC(=O)OC`: the solubility (kinetic) was determined as 23.1 µg/mL (≈ 65.3 µM).

`O=C(Cc1cccs1)Nc1ccc(F)cc1`: the kinetic solubility is more than 35.3 µg/mL.
